Measurements as given in patent US5480885A, “Ergoline derivatives of 1-propinylamine, a process for the manufacture thereof and the use thereof for medicaments” (priority 1991, dated 1996).

Tests used:
[1] = target: T1, isolated rabbit thoracic aorta (serotonin) (Oryctolagus cuniculus, UniProt G1SYA7)
T1 construct: isolated rabbit thoracic aorta; from tissue; host or cells: isolated rabbit thoracic aorta

[2] = system: isolated rabbit thoracic aorta (noradrenaline); assay: inhibition of the constrictive activity of noradrenaline on the isolated rabbit thoracic aorta
[3] = system: isolated rat uterus (serotonin); assay: inhibition of serotonin-induced contractions of the isolated rat uterus; details: serotonin-induced contractions (serotonin 2.47×10^-8 M where printed)
[4] = system: isolated rat uterus; assay: uterotonic activity (isolated rat uterus); details: in words
[5] = blood pressure and heart rate in pentobarbital-anesthetized normotensive rats; type: in vivo, rat; details: rat, in vivo, iv; normotensive rats, pentobarbital-induced anesthesia; read-out: ED50, decrease of the mean arterial blood pressure
[6] = system: pentobarbital-anesthetized normotensive rats; assay: as above; type: in vivo, rat; details: 450 μg/kg i.v.
[7] = system: pithed rats; assay: vasoconstriction / diastolic pressure in pithed rats (Gillespie); type: in vivo, rat; details: 450 μg/kg i.v.
[8] = target: T2, 5-HT2 receptors (Mus musculus, UniProt P35363); assay: inhibition of the head twitch response after 5-HTP/carbidopa; type: in vivo, mice; details: ip, mice, L-5-HTP/carbidopa, 15 minutes prior, read-out: ID50, inhibition of head twitch response
T2 construct: The head twitch model in mice; from tissue; host or cells: living mice (central nervous system)
T2 sequence (P35363 whole entry): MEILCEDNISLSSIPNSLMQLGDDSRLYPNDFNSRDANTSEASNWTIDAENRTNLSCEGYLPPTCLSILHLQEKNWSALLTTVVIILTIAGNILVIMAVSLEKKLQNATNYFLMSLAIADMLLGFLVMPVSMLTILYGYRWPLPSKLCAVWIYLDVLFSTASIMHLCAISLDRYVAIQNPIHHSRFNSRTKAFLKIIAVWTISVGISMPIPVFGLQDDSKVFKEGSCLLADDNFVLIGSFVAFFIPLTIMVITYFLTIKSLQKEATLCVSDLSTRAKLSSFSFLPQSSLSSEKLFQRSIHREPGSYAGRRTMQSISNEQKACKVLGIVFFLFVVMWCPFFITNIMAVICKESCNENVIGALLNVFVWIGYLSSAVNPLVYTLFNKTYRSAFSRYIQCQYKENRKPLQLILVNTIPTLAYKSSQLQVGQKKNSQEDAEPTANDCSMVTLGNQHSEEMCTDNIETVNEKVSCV
Protocol: The substance was injected 15 minutes prior to DL-5-HTP. The head twitch was recorded from 30 to 35 minutes after the DL-5-HTP injection (modified method according to Handley and Singh, Br. J. Pharmacol. 86, 297 (1985)).
The compound was injected 15 minutes prior to L-5-HTP (modified method according to Handley and Singh, Br. J. Pharmacol. 86, 297 (1985)).
The head twitch model in mice represents an experimental model for determining the hallucinogenic action of a compound (the method was described by Handley and Singh, Br.J.Pharmacol., 86, 297-303, 1985). It is believed that the response is conveyed via the 5-HT2 receptors.

[9] = target: T3, 5-HT1A serotoninergic receptor (Homo sapiens, UniProt P08908); assay: binding at [^3 H] 8-OH-DPAT binding site; details: [^3 H] 8-OH-DPAT; in words
T3 sequence (P08908 1-422): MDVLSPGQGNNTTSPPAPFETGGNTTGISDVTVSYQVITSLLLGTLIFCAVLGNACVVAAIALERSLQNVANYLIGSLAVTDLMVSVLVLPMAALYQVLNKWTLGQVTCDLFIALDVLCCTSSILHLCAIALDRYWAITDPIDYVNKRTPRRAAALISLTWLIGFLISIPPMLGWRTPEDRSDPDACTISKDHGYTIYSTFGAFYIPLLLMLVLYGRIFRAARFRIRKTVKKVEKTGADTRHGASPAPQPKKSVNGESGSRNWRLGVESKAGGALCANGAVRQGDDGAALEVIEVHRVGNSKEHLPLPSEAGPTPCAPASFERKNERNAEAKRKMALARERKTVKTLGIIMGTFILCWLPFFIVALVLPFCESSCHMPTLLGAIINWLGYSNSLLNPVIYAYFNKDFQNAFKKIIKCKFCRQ
From the text: (§1) Binding affinities of the compounds of Examples 1

[10] = target: T3, 5-HT1A serotoninergic receptor; assay: functional test, 5-HT1A serotoninergic receptor; details: in words
[11] = system: sigma receptor; assay: binding at [^3 H] DTG binding site; details: in words
[12] = system: sigma receptor; assay: functional test, sigma receptor; details: in words
[13] = target: 5-HT2 receptor (Homo sapiens, UniProt P28223); assay: biochemical; type: binding
Chain of 5-HT2 receptor (P28223 whole entry): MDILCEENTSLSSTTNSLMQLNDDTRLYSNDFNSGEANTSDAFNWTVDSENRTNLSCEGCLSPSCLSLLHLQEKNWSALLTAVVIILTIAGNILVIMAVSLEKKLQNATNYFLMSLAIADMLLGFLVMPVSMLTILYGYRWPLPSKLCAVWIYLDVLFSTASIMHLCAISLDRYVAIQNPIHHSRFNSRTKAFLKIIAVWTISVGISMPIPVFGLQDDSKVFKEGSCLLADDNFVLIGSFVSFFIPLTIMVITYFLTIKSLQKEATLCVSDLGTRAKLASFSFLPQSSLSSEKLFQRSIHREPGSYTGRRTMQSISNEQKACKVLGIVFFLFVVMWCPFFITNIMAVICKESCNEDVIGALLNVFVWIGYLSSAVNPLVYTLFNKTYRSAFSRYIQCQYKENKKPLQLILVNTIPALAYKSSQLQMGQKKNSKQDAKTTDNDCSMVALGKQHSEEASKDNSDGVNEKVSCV
From the text: as §1

[14] = target: D2 receptor (Homo sapiens, UniProt P14416); assay: binding, [^3 H]Raclopride
Chain of D2 receptor (P14416 whole entry): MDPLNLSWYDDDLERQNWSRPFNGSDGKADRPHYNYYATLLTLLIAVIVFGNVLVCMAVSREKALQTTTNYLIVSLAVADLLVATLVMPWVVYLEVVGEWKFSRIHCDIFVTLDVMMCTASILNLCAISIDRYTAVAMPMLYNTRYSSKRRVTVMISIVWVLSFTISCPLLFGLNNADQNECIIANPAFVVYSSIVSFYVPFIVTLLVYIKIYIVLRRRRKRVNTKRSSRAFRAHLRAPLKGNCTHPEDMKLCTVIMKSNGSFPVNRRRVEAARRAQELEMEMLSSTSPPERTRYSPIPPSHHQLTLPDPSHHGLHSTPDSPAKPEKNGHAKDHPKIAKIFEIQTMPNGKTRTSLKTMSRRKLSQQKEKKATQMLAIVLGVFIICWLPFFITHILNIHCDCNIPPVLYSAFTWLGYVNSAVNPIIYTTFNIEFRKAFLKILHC
From the text: as §1

[15] = target: D1 receptor (Homo sapiens, UniProt P21728); assay: binding, [^3 H]SCH23390
Chain of D1 receptor (P21728 whole entry): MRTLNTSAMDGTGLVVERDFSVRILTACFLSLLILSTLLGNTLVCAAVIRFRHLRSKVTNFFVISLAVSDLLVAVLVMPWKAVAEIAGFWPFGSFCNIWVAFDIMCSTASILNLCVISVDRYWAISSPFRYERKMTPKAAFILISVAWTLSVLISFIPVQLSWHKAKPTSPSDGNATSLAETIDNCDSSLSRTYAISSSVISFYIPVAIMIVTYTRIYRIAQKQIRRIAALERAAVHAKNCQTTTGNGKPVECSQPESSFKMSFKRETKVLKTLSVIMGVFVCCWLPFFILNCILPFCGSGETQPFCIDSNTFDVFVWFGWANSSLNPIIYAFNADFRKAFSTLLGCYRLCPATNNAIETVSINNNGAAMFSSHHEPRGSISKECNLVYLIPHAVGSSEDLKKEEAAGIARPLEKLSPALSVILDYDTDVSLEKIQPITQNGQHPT
From the text: (§2) Binding affinities of the compounds of Examples 5

[16] = system: α1 receptor; assay: binding, [^3 H]Prazosin
From the text: as §2

[17] = target: T4, D2 receptors (Rattus norvegicus, UniProt P61169); assay: apomorphine-induced locomotion; type: in vivo; details: sc, -45 min., apomorphine 0.4 mg/kg s.c., rats, read-out: ID50, apomorphine-induced locomotion
T4 construct: from tissue; host or cells: living rats (central nervous system)
T4 sequence (P61169 whole entry): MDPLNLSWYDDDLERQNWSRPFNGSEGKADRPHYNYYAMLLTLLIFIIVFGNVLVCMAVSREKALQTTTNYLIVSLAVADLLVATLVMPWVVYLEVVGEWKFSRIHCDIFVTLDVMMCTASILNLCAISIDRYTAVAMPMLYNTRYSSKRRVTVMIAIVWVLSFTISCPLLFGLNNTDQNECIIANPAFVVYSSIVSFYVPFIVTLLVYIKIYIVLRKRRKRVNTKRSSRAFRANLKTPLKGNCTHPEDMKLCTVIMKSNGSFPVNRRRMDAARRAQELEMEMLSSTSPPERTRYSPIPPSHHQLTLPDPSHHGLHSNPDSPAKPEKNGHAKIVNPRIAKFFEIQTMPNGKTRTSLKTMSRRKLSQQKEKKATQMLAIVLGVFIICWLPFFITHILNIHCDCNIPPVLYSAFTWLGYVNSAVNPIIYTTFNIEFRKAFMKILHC

[18] = target: T5, D2 receptors (Mus musculus, UniProt P61168); assay: apomorphine-induced climbing in mice; type: in vivo; details: ip, -30 min., apomorphine 1.5 mg/kg s.c., read-out: ID50, climbing behavior
T5 construct: from tissue; host or cells: living mice (central nervous system)
T5 sequence (P61168 whole entry): as the sequence (P61169 whole entry) above, with A29P counted along it
Protocol: The application of apomorphine in a dose of 1.5 mg/kg s.c. caused a characteristic climbing behavior in mice.

[19] = catalepsy in rats; type: in vivo, rat; details: rat, in vivo, sc; rats
Protocol: (§3) The s.c. application of the compounds of Example 5 (0.5 to 16 mg/kg) and of Example 8 (0.125 to 4 mg/kg), respectively, caused catalepsy in rats (the method was described by Morelli and Chiara, Europ. J. Pharmacol. 117, 179-185, 1985).

[20] = system: rats; assay: catalepsy in rats; type: in vivo, rat; details: in words
Protocol: as §3

[21] = system: α1 receptors; assay: noradrenaline-induced lethality in rats; type: in vivo, rat; details: s.c.
[22] = spontaneous motor activity in mice; type: in vivo; details: mouse, in vivo, ip; mice; read-out: ID50, inhibition of spontaneous motor activity
[23] = system: mice; assay: spontaneous motor activity in mice; type: in vivo; details: two models (motor activity and pentobarbital anesthesia); vs haloperidol; in words
[24] = prolongation of pentobarbital-induced anesthesia in mice; details: mouse, in vivo, ip
[25] = overall antipsychotic action and side-effect profile (summary statements); type: in vivo; details: in words

T1 sequence (G1SYA7 entry or part of it): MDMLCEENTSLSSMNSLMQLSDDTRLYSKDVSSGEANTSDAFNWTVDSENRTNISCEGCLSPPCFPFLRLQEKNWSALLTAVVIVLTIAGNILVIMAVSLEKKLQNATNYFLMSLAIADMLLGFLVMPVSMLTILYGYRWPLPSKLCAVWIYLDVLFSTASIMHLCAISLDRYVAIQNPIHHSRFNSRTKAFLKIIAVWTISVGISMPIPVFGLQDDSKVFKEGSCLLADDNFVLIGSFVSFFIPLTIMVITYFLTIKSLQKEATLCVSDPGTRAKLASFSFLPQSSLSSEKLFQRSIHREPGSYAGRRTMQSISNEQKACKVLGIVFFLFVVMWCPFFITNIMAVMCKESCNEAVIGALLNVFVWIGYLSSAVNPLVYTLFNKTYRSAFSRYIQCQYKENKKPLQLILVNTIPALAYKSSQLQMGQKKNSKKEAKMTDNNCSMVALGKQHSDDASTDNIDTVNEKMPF

## C#CCN(C)C(=O)[C@@H]1C=C2c3cccc4[nH]c(Br)c(c34)C[C@H]2N(C)C1 [Example 5, 2-Bromo-9,10-didehydro-N-methyl-N-(2'-propinyl)-6-methylergoline-8β-carboxamide]
[1]; in words
  mode of inhibition of serotonin constriction: competitively inhibited
[1]; vs serotonin, read-out: pA2 (converted)
  Kb: 11.7 nM
[2]; in words
  mode of inhibition of noradrenaline constriction: competitively inhibited
[2]; vs noradrenaline
  pA2: 6.45
[3]
  IC50: 12.5 nM
[4]
  uterotonic activity: no uterotonic activity
[5]
  ED50: 0.42 mg/kg
[6]; in words
  effect on carotid artery pressure: small, yet statistically significant decrease in carotid artery pressure and heart rate
  effect on heart rate: small, yet statistically significant decrease in carotid artery pressure and heart rate
[6]; vs initial level
  maximum reduction in carotid artery pressure: 10%
  reduction in heart rate: 10%
[7]; in words
  peripheral vasoconstriction: slowly developing peripheric vasoconstriction
[7]; vs control
  peripheric vasoconstriction, increase: 20%
[8]
  ED50: 3.8 mg/kg
[9]
  affinity to 5-HT1A receptor: possessed affinity
[10]
  functional activity at 5-HT1A: did not indicate any activity
[11]
  affinity to sigma receptor: possessed affinity
[12]
  functional activity at sigma receptor: indicated an antagonistic activity
[13]; 5-HT2, [^3 H]Ketanserin, read-out: Ki
  Ki: 18 nM
[13]; in words
  affinity for 5-HT2 receptors: high affinity
[14]; D2, [^3 H]Raclopride
  Ki: 2.3 nM
[14]; in words
  affinity for D2 receptors: high affinity
[15]; D1, [^3 H]SCH23390
  Ki: 97 nM
[15]; in words
  affinity for D1 receptors: lower
[16]; in words
  affinity for α1 receptors: lower
[16]; α1, [^3 H]Prazosin
  Ki: 29 nM
[17]
  ED50: 0.66 mg/kg
[18]
  ED50: 6.89 mg/kg
[19]
  ED50: 1.4 mg/kg
[20]
  cataleptic action compared with haloperidole: lesser than the action caused by the typical antipsychotic haloperidole
[21]
  ID50, noradrenaline-induced lethality: 5.11 mg/kg
[22]
  ED50: 12.5 mg/kg
[23]
  depressant action on the level of CNS: several times lower depressant action on the level of CNS if compared with haloperidol
[24]
  ED50: 9.2 mg/kg
[25]
  antipsychotic action: strongest antipsychotic action
